# Assay: Safe solvent solubility test of compound
# Type: physicochemical
# Conditions: amount of dissolution in propylene glycol monomethyl ether acetate at 23° C., ultrasonic 30 minutes, visual
# Description: The solubility of the compound in propylene glycol monomethyl ether acetate was measured as the solubility of the compound in a safe solvent. The solubility was evaluated according to the following criteria utilizing the amount of dissolution in propylene glycol monomethyl ether acetate. The amount of dissolution was measured at 23° C. by precisely weighing the compound into a test tube, adding propylene glycol monomethyl ether acetate so as to attain a predetermined concentration, applying ultrasonic waves for 30 minutes in an ultrasonic cleaner, then visually observing the subsequent state of the fluid, and conducting evaluation on the basis of the concentration of the amount of complete dissolution. • A: 5.0% by mass≤Amount of dissolution • B: 3.0% by mass≤Amount of dissolution<5.0% by mass • C: Amount of dissolution<3.0% by mass (2) Storage Stability and Thin Film Formability of Resist Composition
row,SMILES,Safe solvent solubility test
1,"Oc1ccc([Te](Cl)(Cl)c2ccc(O)cc2)cc1 [BHPT, bis(4-hydroxyphenyl)tellurium dichloride]",A (5.0% by mass≤Amount of dissolution)
2,"CC1(OC(=O)COc2ccc([Te](Cl)(Cl)c3ccc(OCC(=O)OC4(C)C5CC6CC(C5)CC4C6)cc3)cc2)C2CC3CC(C2)CC1C3 (stereo not drawn) [BHPT-ADBAC, bis(4-(2-methyl-2-adamantyloxycarbonylmethoxy)phenyl)tellurium dichloride]",A (5.0% by mass≤Amount of dissolution)
3,"CC(C)(C)OC(=O)Oc1ccc([Te](Cl)(Cl)c2ccc(OC(=O)OC(C)(C)C)cc2)cc1 [BHPT-BOC, bis(tert-butoxycarboxyphenyl)tellurium dichloride]",A (5.0% by mass≤Amount of dissolution)
4,"CCOC(C)Oc1ccc([Te](Cl)(Cl)c2ccc(OC(C)OCC)cc2)cc1 (stereo not drawn) [BHPT-EE, bis(ethoxyethylphenyl)tellurium dichloride]",A (5.0% by mass≤Amount of dissolution)
5,"Oc1ccc([Te](Cl)(Cl)c2ccc(O)c(-c3ccccc3)c2)cc1-c1ccccc1 [Ph-BHPT, bis(3-phenyl-4-hydroxyphenyl)tellurium dichloride]",A (5.0% by mass≤Amount of dissolution)
6,CC1(OC(=O)COc2ccc([Te](Cl)(Cl)c3ccc(OCC(=O)OC4(C)C5CC6CC(C5)CC4C6)c(-c4ccccc4)c3)cc2-c2ccccc2)C2CC3CC(C2)CC1C3 (stereo not drawn) [Ph-BHPT-ADBAC],A (5.0% by mass≤Amount of dissolution)
7,"Oc1ccc([Te]c2ccc(O)c(-c3ccccc3)c2)cc1-c1ccccc1 [Ph-TDP, bis(3-phenyl-4-hydroxyphenyl)tellurium]",A (5.0% by mass≤Amount of dissolution)
8,CC1(OC(=O)COc2ccc([Te]c3ccc(OCC(=O)OC4(C)C5CC6CC(C5)CC4C6)c(-c4ccccc4)c3)cc2-c2ccccc2)C2CC3CC(C2)CC1C3 (stereo not drawn) [Ph-TDP-ADBAC],A (5.0% by mass≤Amount of dissolution)
9,CC(C)(C)OC(=O)COc1ccc([Te]c2ccc(OCC(=O)OC(C)(C)C)cc2)cc1 [Ph-TDP-BOC],A (5.0% by mass≤Amount of dissolution)
10,CCOC(C)Oc1ccc([Te](Cl)(Cl)c2ccc(OC(C)OCC)c(-c3ccccc3)c2)cc1-c1ccccc1 (stereo not drawn) [Ph-TDP-EE],A (5.0% by mass≤Amount of dissolution)
11,"Oc1ccc([Te]c2ccc(O)cc2)cc1 [TDP, 4,4′-telluriumdiphenol]",A (5.0% by mass≤Amount of dissolution)
12,CC1(OC(=O)COc2ccc([Te]c3ccc(OCC(=O)OC4(C)C5CC6CC(C5)CC4C6)cc3)cc2)C2CC3CC(C2)CC1C3 (stereo not drawn) [TDP-ADBAC],A (5.0% by mass≤Amount of dissolution)

# From patent US11852970B2, “Material for lithography, production method therefor, composition for lithography, pattern formation method, compound, resin, and method for purifying the compound or the resin” (Mitsubishi Gas Chemical Company, Inc., priority 2015, dated 2023)
